Reference: ChEMBL document CHEMBL5661943, “ASAP - In vitro antiviral effect” (2024)
Where “and” joins values, the source holds several entries; their conditions need not be identical. Equal values may be shown once.

Assays:
dengue virus type 2 [1] = assay: (§1) Functional immunofluorescence assay to measure dose dependent changes in antiviral-drug inhibitory efficacy against Dengue virus type 2 Thailand/16681/84 in Vero E6/TMPRSS2 cells (cotreated with P-gp inhibitor, Elacridar). Cells are treated with antiviral candidates that are serially diluted, following infection, cells are fixed. EC50 is reported via analysis of immunofluorescence staining. The assay has been performed by Icahn School of Medicine at Mount Sinai.; type: organism-based, Chlorocebus sabaeus, VeroE6/TMPRSS2
dengue virus type 2 [2] = assay: Functional assay to measure dose dependent changes in antiviral-drug inhibitory efficacy against Dengue virus type 2 New Guinea C in Vero E6 miRFP670 cells. Cells are treated with antiviral candidates that are serially diluted, following infection, cells are fixed. EC50 is reported via analysis of fluorescence intensity using high-content imager. The assay has been performed by KU Leuven.; type: organism-based, Chlorocebus sabaeus
Zika virus [3] = assay: EC50 is reported via analysis of immunofluorescence staining. The assay has been performed by Icahn School of Medicine at Mount Sinai.; type: functional, organism-based, Chlorocebus sabaeus, VeroE6/TMPRSS2
Zika virus [4] = assay: (§2) Functional CPE-based assay to measure dose dependent changes in antiviral-drug inhibitory efficacy against Zika virus MR766 in Vero E6 miRFP670 cells (cotreated with P-gp inhibitor, CP100356). Cells are treated with antiviral candidates that are serially diluted. EC50 is reported via analysis of MTS assay as a readout of CPE. The assay has been performed by KU Leuven.; type: organism-based, Chlorocebus sabaeus, Vero C1008; conditions: for EC90: Baseline response 0 %, Maximum response 100 %, P-gp inhibitor CP100356
dengue virus type 2 [5] = assay: Functional assay to measure dose dependent changes in antiviral-drug inhibitory efficacy against Dengue virus type 2 New Guinea C in Vero E6 miRFP670 cells (cotreated with P-gp inhibitor, CP100356). Cells are treated with antiviral candidates that are serially diluted, following infection, cells are fixed. EC50 is reported via analysis of fluorescence intensity using high-content imager. The …; type: organism-based, Chlorocebus sabaeus, Vero C1008
Zika virus [6] = assay: as §2, with “cells.” for “cells (cotreated with P-gp inhibitor, CP100356).”; type: organism-based, Chlorocebus sabaeus, Vero C1008
[7] = system: Middle East respiratory syndrome-related coronavirus; assay: microbe, parasite or virus in culture; type: functional, organism-based, Chlorocebus sabaeus; conditions: VeroE6/TMPRSS2
Zika virus [8] = assay: as §1, with “Zika” for “Dengue”, “PRVABC59” for “type 2 Thailand/16681/84”, “cells.” for “cells (cotreated with P-gp inhibitor, Elacridar).”; type: organism-based, Chlorocebus sabaeus; conditions: for EC50: VeroE6/TMPRSS2
dengue virus type 2 [9] = assay: Functional CPE-based assay to measure dose dependent changes in antiviral-drug inhibitory efficacy against Dengue virus type 2 New Guinea C in Huh7 cells. Cells are treated with antiviral candidates that are serially diluted. EC50 is reported via analysis of MTT/MTS assay as a readout of CPE. The assay has been performed by National Institute of Allergy and Infectious Diseases.; type: organism-based, Homo sapiens; conditions: Huh-7
dengue virus type 2 [10] = assay: as §1, with “cells.” for “cells (cotreated with P-gp inhibitor, Elacridar).”; type: organism-based, Chlorocebus sabaeus; conditions: for EC50: VeroE6/TMPRSS2; for EC90: VeroE6/TMPRSS2, Baseline response 0 %, Maximum response 100 %

O=C(Nc1ccc2c(c1)CNC2)c1cc(Cl)cc2[nH]ncc12
EC50 (dengue virus type 2 [1]; Dengue virus, VeroE6/TMPRSS2): > 50 µM
EC90 (dengue virus type 2 [1]; Dengue virus, VeroE6/TMPRSS2, Maximum measured 202.528 %, Minimum measured 74.934 %, P-gp concentration 2 uM, P-gp inhibitor Elacidar): > 50 µM
EC50 (dengue virus type 2 [2]; Vero C1008): > 50 µM
EC90 (dengue virus type 2 [2]; Vero C1008, Baseline response 0 %, Hill slope -0.996, Maximum measured 1.395 %, Maximum response 100 %, Minimum measured -3.373 %, R squared 0.016): > 50 µM
EC50 (Zika virus [3]; Zika virus, VeroE6/TMPRSS2): 12.7 µM
EC90 (Zika virus [3]; Zika virus, VeroE6/TMPRSS2, Baseline response 0 %, Hill slope -1.535, Maximum measured 150.297 %, Maximum response 100 %, Minimum measured 39.396 %, P-gp concentration 2 uM, R squared 0.523, P-gp inhibitor Elacidar): > 16.7 µM
EC90 (Zika virus [4]; EC90 CI (lower) 3.61 uM, EC90 CI (upper) 15.25 uM, Hill slope 2.511, Maximum measured 126.79 %, Minimum measured 6.324 %, P-gp concentration 500 nM, R squared 0.896): 7.42 µM
EC50 (Zika virus [4]; Zika virus, Vero C1008): 4.57 µM
EC90 (Zika virus [4]; Zika virus, Vero C1008, EC90 CI (lower) 7.143 uM, EC90 CI (upper) 23.592 uM, Hill slope 2.106, Maximum measured 121.753 %, Minimum measured 3.066 %, P-gp concentration 100 nM, R squared 0.93): 13 µM
EC50 (Zika virus [4]; vero c1008): 3.09 µM
EC50 (dengue virus type 2 [5]; Dengue virus, Vero C1008): > 50 µM
EC90 (dengue virus type 2 [5]; Dengue virus, Vero C1008, Maximum measured 2.237 %, Minimum measured -2.116 %, P-gp concentration 100 nM, P-gp inhibitor CP100356): > 50 µM
EC90 (dengue virus type 2 [5]; Dengue virus, Vero C1008, Maximum measured 108.122 %, Minimum measured 103.322 %, P-gp concentration 500 nM, P-gp inhibitor CP100356): > 50 µM
EC90 (dengue virus type 2 [5]; Dengue virus, Vero C1008, Maximum measured 122.049 %, Minimum measured 106.43 %, P-gp concentration 500 nM, P-gp inhibitor CP100356): > 50 µM
EC90 (Zika virus [6]; Zika virus, Vero C1008, Baseline response 0 %, Hill slope 1.599, Maximum measured 39.692 %, Maximum response 100 %, Minimum measured -0.234 %, R squared 0.961): > 50 µM
EC90 (Zika virus [6]; Zika virus, Vero C1008, Baseline response 0 %, Hill slope 4.496, Maximum measured 86.5 %, Maximum response 100 %, Minimum measured 2.921 %, R squared 0.876): > 50 µM
EC90 (Zika virus [6]; Zika virus, Vero C1008, Baseline response 0 %, EC90 CI (lower) 23.876 uM, EC90 CI (upper) 46.036 uM, Hill slope 2.096, Maximum measured 107.811 %, Maximum response 100 %, Minimum measured 2.258 %, R squared 0.969): 33.1 µM
EC50 (Zika virus [6]; vero c1008): 34 µM and > 50 µM and 11.6 µM

C=CC[C@H](Nc1cccc(-c2nn[nH]n2)c1)c1cc(Cl)cc2[nH]ncc12
EC50 [7]: 0.988 µM
EC90 [7]: 2.78 µM

CC(C)CNC(=O)c1cc(Cl)c(F)cc1NS(=O)(=O)c1ccc(Oc2ccccc2Cl)cc1
EC50 (Zika virus [8]): > 50 µM
EC90 (Zika virus [8]; VeroE6/TMPRSS2, Maximum measured 624.218 %, Minimum measured 63.552 %): > 50 µM
EC90 (dengue virus type 2 [1]; Dengue virus, VeroE6/TMPRSS2): 1.89 µM
EC90 (dengue virus type 2 [1]; Dengue virus, VeroE6/TMPRSS2, Maximum measured 155.684 %, Minimum measured 125.095 %, P-gp concentration 2 uM, P-gp inhibitor Elacidar): > 5.56 µM
EC90 (Zika virus [3]; Baseline response 0 %, Hill slope -1.279, Maximum measured 136.576 %, Maximum response 60 %, Minimum measured 13.183 %, P-gp concentration 2 uM, R squared 0.138, P-gp inhibitor Elacidar): > 50 µM
EC90 (Zika virus [3]; Baseline response 0 %, Hill slope -13.406, Maximum measured 146.245 %, Maximum response 100 %, Minimum measured 54.335 %, P-gp concentration 2 uM, R squared 0.12, P-gp inhibitor Elacidar): > 16.7 µM
EC50 (Zika virus [3]; Zika virus, VeroE6/TMPRSS2): > 16.7 µM
EC50 (Zika virus [3]; veroe6/tmprss2): 27.9 µM
EC50 (dengue virus type 2 [9]): > 3.1 µM
EC90 (dengue virus type 2 [5]; Baseline response 0 %, Hill slope -36.406, Maximum measured 110.21 %, Maximum response 100 %, Minimum measured 0.136 %, P-gp concentration 500 nM, R squared 0.986, P-gp inhibitor CP100356): 5.99 µM
EC50 (dengue virus type 2 [5]; Dengue virus, Vero C1008): 5.32 µM
EC90 (dengue virus type 2 [5]; Dengue virus, Vero C1008): 5.85 µM
EC50 (dengue virus type 2 [5]; vero c1008): 5.64 µM
EC50 (dengue virus type 2 [10]): 0.193 µM
EC90 (dengue virus type 2 [10]; Hill slope -0.469, Maximum measured 101.396 %, Minimum measured 33.359 %, R squared 0.321): > 1.85 µM
EC50 (Zika virus [6]; Zika virus, Vero C1008): > 50 µM
EC90 (Zika virus [6]; Zika virus, Vero C1008, Baseline response 0 %, Hill slope -1.049, Maximum measured 4.723 %, Maximum response 100 %, Minimum measured -5.364 %, R squared 0.235): > 50 µM
EC90 (Zika virus [6]; Zika virus, Vero C1008, Maximum measured 0.142 %, Minimum measured -3.427 %): > 50 µM
EC90 (Zika virus [6]; Zika virus, Vero C1008, Maximum measured 0.689 %, Minimum measured -11.388 %): > 50 µM

CC(C)CNC(=O)c1cc(Cl)ccc1NS(=O)(=O)c1ccc(Oc2ccccc2Cl)cc1
EC50 (Zika virus [8]): 4.4 µM
EC90 (Zika virus [8]; VeroE6/TMPRSS2, Baseline response 0 %, Hill slope -0.566, Maximum measured 86.366 %, Maximum response 100 %, Minimum measured 3.533 %, R squared 0.722): > 50 µM
EC90 (dengue virus type 2 [1]; Baseline response 0 %, EC90 CI (lower) 0.741 uM, EC90 CI (upper) 4.671 uM, Hill slope -3.39, Maximum measured 117.923 %, Maximum response 100 %, Minimum measured 16.6 %, P-gp concentration 2 uM, R squared 0.718, P-gp inhibitor Elacidar): 6.8 µM
EC90 (dengue virus type 2 [1]; Baseline response 0 %, EC90 CI (lower) […] uM, EC90 CI (upper) 0.019 uM, Hill slope -1.255, Maximum measured 118.581 %, Maximum response 100 %, Minimum measured 5.952 %, P-gp concentration 2 uM, R squared 0.745, P-gp inhibitor Elacidar): 0.18 µM
EC90 (dengue virus type 2 [1]; Dengue virus, VeroE6/TMPRSS2, Maximum measured 165.458 %, Minimum measured 88.019 %, P-gp concentration 2 uM, P-gp inhibitor Elacidar): > 16.7 µM
EC90 (Zika virus [3]; Baseline response 0 %, EC90 CI (lower) 6.158 uM, EC90 CI (upper) 70.47 uM, Hill slope -6.578, Maximum measured 126.059 %, Maximum response 100 %, Minimum measured 2.779 %, P-gp concentration 2 uM, R squared 0.75, P-gp inhibitor Elacidar): 40.6 µM
EC90 (Zika virus [3]; Zika virus, VeroE6/TMPRSS2): 32.4 µM
EC90 (Zika virus [3]; Zika virus, VeroE6/TMPRSS2, Maximum measured 119.408 %, Minimum measured 55.418 %, P-gp concentration 2 uM, P-gp inhibitor Elacidar): > 3.33 µM
EC50 (Zika virus [3]; veroe6/tmprss2): > 3.33 µM and 19.2 µM and 29.1 µM
EC50 (dengue virus type 2 [9]): > 6.5 µM
EC50 (dengue virus type 2 [5]; Dengue virus, Vero C1008): 5.64 µM
EC90 (dengue virus type 2 [5]; Dengue virus, Vero C1008, Baseline response 0 %, Hill slope -37.142, Maximum measured 110.023 %, Maximum response 100 %, Minimum measured 0.325 %, P-gp concentration 500 nM, R squared 0.985, P-gp inhibitor CP100356): 5.99 µM
EC50 (dengue virus type 2 [10]): 0.569 µM
EC90 (dengue virus type 2 [10]; Hill slope -0.624, Maximum measured 99.166 %, Minimum measured 12.707 %, R squared 0.743): > 16.7 µM
EC50 (Zika virus [6]; Zika virus, Vero C1008): > 50 µM
EC90 (Zika virus [6]; Zika virus, Vero C1008, Maximum measured -0.388 %, Minimum measured -2.415 %): > 50 µM
